Source: patent publication US6410558B1, “Fungicides for the control of take-all disease of plants” (Monsanto Technology LLC, priority 1991, dated 2002)

Tested on: Gaeumannomyces graminis var. tritici (Ggt)
Test: In vitro Assay: mycelial growth of Ggt on minimal media agar plates containing test compound
Format: cell-based
Details: Gaeumannomyces graminis, dark, 19-20° C., 4 to 5 days, diameter of mycelial growth; for inhibition at 0.1 ppm: 0.1 ppm in minimal media agar, read-out: In vitro (ppm) 0.1, Percent Inhibition; for inhibition at 1 ppm: 1 ppm in minimal media agar, read-out: In vitro (ppm) 1, Percent Inhibition; for inhibition at 10 ppm: 10 ppm in minimal media agar, read-out: In vitro (ppm) 10, Percent Inhibition
Procedure: The test compounds (0.25 mL of an appropriate stock solution in acetone) are incorporated into 25 mL minimal media agar [(prepared by autoclaving a solution of 17.5 g Czapek Dox broth (Difco), 7.5 g purified agar or Bacto-agar (Difco), and 500 mL distilled/deionized water, and then adding 50 μL of 1 mg/mL thiamine hydrochloride and 50 μL of 1 mg/mL biotin in 5% ethanol] and plates are prepared.
Each plate is inoculated by placing in a triangular shape three 4-mm plugs of Gaeumannomyces graminis var. tritici (Ggt) grown on the minimal media agar described above. The plates are incubated in the dark at 19-20° C. for 4 to 5 days. The growth of the fungus is measured as the diameter of the mycelial growth. The result is expressed as Percent Inhibition, calculated as [1-[(mm growth on treated plate −4)/(mm growth on control plate −4)]]×100.

SMILES | inhibition at 0.1 ppm [%] | inhibition at 1 ppm [%] | inhibition at 10 ppm [%]
CCNC(=O)c1c(Cl)cccc1C(C)(C)C [Example 285, 2-Chloro-N-ethyl-6-(1,1-dimethylethyl)benzamide] | < 0 | 50 | 75
CCNC(=O)c1sccc1[Si](C)(C)C [Example 248, N-Ethyl-3-(trimethylsilyl)-2-thiophenecarboxamide] | 10 | 10 | 100
CCNC(=O)c1c(F)cccc1CC(C)(C)C [Example 93, 2-(2,2-Dimethylpropyl)-N-ethyl-6-fluorobenzamide] | < 0 | < 0 | 26
C[Si](C)(C)c1cc(Cl)sc1C(=O)NCCOS(C)(=O)=O [Example 265, 5-Chloro-N-[2[(methylsulfonyl)oxy]ethyl]-3-(trimethylsilyl)-2-thiophenecarboxamide] | 5 | 14 | 100
CCNC(=O)c1c(Cl)cccc1[Si](C)(C)C(C)(C)C [Example 185, 2-Chloro-6-[(1,1-dimethylethyl)dimethylsilyl]-N-ethylbenzamide] | 48 | 56 | 72
C[Si](C)(C)c1cc(Cl)sc1C(=O)NCCO [Example 263, 5-Chloro-N-(2-hydroxyethyl)-3-trimethylsilyl-2-thiophenecarboxamide] | 7 | < 0 | 50
CCNC(=O)c1ccccc1OC(C)(C)C [Example 247, N-Ethyl-2-(1,1-dimethylethoxy)benzamide] | < 0 | 16 | 59
CCNC(=O)c1c(Cl)cccc1[Si](C)(C)C1CC2CCC1C2 (stereo not drawn) [Example 183, 2-(Bicyclo[2.2.1]Hept-2-yldimethylsilyl)-6-chloro-N-ethylbenzamide] | 24 | 35 | 56
CCNC(=O)c1c(Cl)cc(C=O)cc1[Si](C)(C)C [Example 193, 2-Chloro-N-ethyl-4-formyl-6-(trimethylsilyl)benzamide] | 35 | 30 | 57
CCNC(=O)c1c(F)cccc1C1(C)CCCC1 [Example 123, N-Ethyl-2-fluoro-6-(1-methylcyclopentyl)benzamide] | 11 | 78 | 89
CCNC(=O)c1c(F)cccc1S(=O)(=O)C(C)(C)C [Example 280, 2-[(1,1-Dimethylethyl)sulfonyl]-N-ethyl-6-fluorobenzamide] | 24 | 21 | 38
CCNC(=O)c1c(I)cccc1[Si](C)(C)C [Example 207, N-Ethyl-2-iodo-6-(trimethylsilyl)benzamide] | 31 | 90 | 97
CCN(CC=CC#CC(C)(C)C)C(=O)c1c(Cl)cccc1[Si](C)(C)C [Example 104, 2-Chloro-N-(6,6-dimethyl-2-hepten-4-ynyl)-N-ethyl-6-(trimethylsilyl)benzamide] | < 0 | 26 | 71
CCN(CC)C(=O)c1sccc1[Si](C)(C)C [Example 255, N,N-Diethyl-3-(trimethylsilyl)-2-thiophenecarboxamide] | < 0 | < 0 | 73
CCNC(=O)c1c(Cl)cccc1[Si](C)(C)c1ccccc1 [Example 184, 2-Chloro-6-(dimethylphenylsilyl)-N-ethylbenzamide] | < 0 | 11 | 83
CCN(CSC)C(=O)c1c(Cl)cccc1[Si](C)(C)C [Example 279, 2-Chloro-N-ethyl-N-[(methylthio)methyl]-6-(trimethylsilyl)benzamide] | < 0 | < 0 | 47
CCC(C)SC(=O)c1c(Cl)cccc1[Si](C)(C)C (stereo not drawn) [Example 80, 2-Chloro-6-(trimethylsilyl)-benzenecarbothioic acid, S-(1-methylpropyl) ester] | < 0 | 4 | 46
CCNC(=O)c1c(F)cccc1[Si](C)(C)C [Example 117, N-Ethyl-2-fluoro-6-(trimethylsilyl)benzamide] | 36 | 94 | 97

SMILES | inhibition at 0.1 ppm [%] | inhibition at 1 ppm [%] | inhibition at 10 ppm [%]
CCNC(=O)c1c(Br)cccc1[Si](C)(C)C [Example 176, 2-Bromo-N-ethyl-6-(trimethylsilyl)benzamide] | 83 | 97 | 97
C[Si](C)(C)c1cccc(Cl)c1C(=O)NCc1ccc(C(F)(F)F)cc1 [Example 102, 2-Chloro-N-[[4-(trifluoromethyl)phenyl]-methyl]-6-(trimethylsilyl)-benzamide] | 28 | 52 | 28
C#CCNC(=O)c1c(Cl)cccc1[Si](C)(C)C [Example 108, 2-Chloro-N-(2-propynyl)-6-(trimethylsilyl)benzamide] | 90 | 86 | 97
CCNC(=O)c1c(Cl)cccc1N(C)C(C)(C)C [Example 190, 2-Chloro-6-[(1,1-dimethylethyl)methylamino]-N-ethylbenzamide] | 24 | 76 | 80
CCNC(=O)c1c(Br)ccc(OC)c1[Si](C)(C)C [Example 236, 6-Bromo-N-ethyl-3-methoxy-2-(trimethylsilyl)benzamide] | < 0 | 68 | 86
CCOC(=O)Nc1c(Cl)cccc1[Si](C)(C)C [Example 109, [2-Chloro-6-(trimethylsilyl)phenyl]carbamic acid, ethyl ester] | 10 | 10 | 83
CCN(CC)C(=O)c1c(C=O)ccc(F)c1[Si](C)(C)C [Example 41, N,N-Diethyl-3-fluoro-6-formyl-2-(trimethylsilyl)benzamide] | 24 | 21 | 52
CCNC(=O)c1c([Si](C)(C)C)ccc(S(C)(=O)=O)c1Cl [Example 238, 2-Chloro-N-ethyl-3-(methylsulfonyl)-6-(trimethylsilyl)benzamide] | < 0 | < 0 | 72
C[Si](C)(C)c1cccc(Cl)c1C(=O)NC1CCC1 [Example 163, 2-Chloro-N-cyclobutyl-6-(trimethylsilyl)benzamide] | 24 | 85 | 100
CN(CC=Cc1ccccc1)C(=O)c1c(Cl)cccc1[Si](C)(C)C [Example 105, 2-Chloro-N-methyl-N-(3-phenyl-2-propenyl)-6-(trimethylsilyl)benzamide] | 3 | 37 | 84
CCNC(=O)c1cc(N(C)C)ccc1[Si](C)(C)C [Example 226, 5-(Dimethylamino)-N-ethyl-2-(trimethylsilyl)benzamide] | 32 | 91 | 100
Cc1ccccc1NC(=O)c1ccccc1[Si](C)(C)C [Example 121, N-(2-Methylphenyl)-2-(trimethylsilyl)benzamide] | 4 | 8 | 31
CCNC(=O)c1c([Si](C)(C)C)ccc(C)c1Cl [Example 230, 2-Chloro-N-ethyl-3-methyl-6-(trimethylsilyl)benzamide] | 88 | 96 | 96
C=CCNC(=O)c1sc(Cl)cc1[Si](C)(C)C [Example 262, 5-Chloro-N-(2-propenyl)-3-(trimethylsilyl)-2-thiophenecarboxamide] | 13 | 70 | 100
CCN=C(SCC)c1c(Cl)cccc1[Si](C)(C)C [Example 169, 2-Chloro-N-ethyl-6-(trimethylsilyl)benzenecarboximidothioic acid, ethyl ester] | < 0 | 31 | 100
CCNC(=O)c1c(Cl)ccc(N(C)C)c1[Si](C)(C)C [Example 237, 6-Chloro-3-(dimethylamino)-N-ethyl-2-(trimethylsilyl)benzamide] | 44 | 93 | 96
CCN(CC)C(=O)c1ccc(C)cc1[Si](C)(C)C [Example 58, N,N-Diethyl-4-methyl-2-(trimethylsilyl)benzamide] | 13 | 6 | 55
C=C(C)CNC(=O)c1c(Cl)cccc1[Si](C)(C)C [Example 147, 2-Chloro-N-(2-methyl-2-propenyl)-6-(trimethylsilyl)benzamide] | < 0 | < 0 | 58
